# Experimental data published in ChEMBL document CHEMBL2094269, “WEHI/Eskitis Trypanosoma b. brucei screening data”.
# Where “and” joins values, the source holds several entries; their conditions need not be identical. Identical values can stand only once.
# Experiments:
# [1] = DNDI: Cytotoxicity against human MRC-5 lung fibroblast cells.; conditions: IC50
# [2] = test system: Trypanosoma brucei brucei; assay: microbe, parasite or virus in culture; type: functional, organism-based, STIB 795
# Description: DNDI: Inhibition of Human African Trypanosomiasis (HAT), STIB 795, in vitro
SMILES,IC50 [1],"IC50 ([2]; Trypanosoma brucei, STIB 795)",IC50 [2]
COc1ccc(-c2cc(-c3ccccc3)c(C#N)c([S+](C)[O-])n2)cc1 (centres undefined),> 41.7 µM,0.206 µM,–
CN1CCc2nc3sc(C(=O)c4ccc(F)cc4)c(N)c3cc2C1,> 41.7 µM,6.35 µM,–
COc1ccc2[nH]c(C)c(CCNCc3cn(C)c4ccccc34)c2c1,> 20.8 µM,4.74 µM,–
Cc1ccccc1Cn1c(=N)n(CC(O)c2ccco2)c2ccccc21 (centres undefined),> 20.8 µM,5.25 µM,–
N=c1n(CCc2ccccc2)c2ccccc2n1Cc1ccccc1F,> 20.8 µM,5.49 µM,–
COC(=O)c1nc(-c2ccccc2)nc(-c2ccccc2)c1C(=O)OC,> 4.17 µM,4.78 µM,–
Cc1ncc(CO)c(/C=N/NC(=O)c2ccc(C(C)(C)C)cc2)c1O,6.25 µM,4.26 µM,–
CC(C)NCC(O)COc1cccc2c(=O)c3ccccc3sc12 (centres undefined),> 20.8 µM,5.46 µM,–
c1ccc(Cn2s/c(=N\c3ccccc3)nc2-c2ccccc2)cc1,> 20.8 µM,1.38 µM,–
CN(/C=C/C=C/C=C/C1=[N+](C)c2ccccc2C1(C)C)c1ccccc1,> 20.8 µM,1.97 µM,–
Clc1ccc(C[n+]2cc(-c3ccccc3)n3c2CCC3)c(Cl)c1,> 41.7 µM,5.23 µM,–
COc1ccccc1C/C(N)=N/OC(=O)c1ccc(OC)c(OC)c1,> 4.17 µM,0.558 µM,–
COc1cc(C(=O)N/N=C(/C)c2ccccc2O)cc(OC)c1OC,> 4.17 µM,4.45 µM,–
CC(=O)O[C@H]1CCC2C3CCC4=CC(=O)CC[C@]4(C)C3C(=O)C[C@@]21C (some centres undefined),6.4 µM,0.39 µM,–
CN1CCN(C2Cc3ccc(F)cc3Sc3ccc(O)cc32)CC1 (centres undefined),> 41.7 µM,2.61 µM,–
O=C(c1ccc(F)cc1)C(CSc1ccc(F)cc1)n1cncn1 (centres undefined),> 41.7 µM,4.92 µM,–
Cc1cc(C)nc(NC(c2ccco2)c2ccc3cccnc3c2O)n1 (centres undefined),> 41.7 µM,5.39 µM,–
CCCOc1ccc(C(=O)Nc2ccc(Cc3ccncc3)cc2)cc1,4.61 µM,1.23 µM,–

SMILES,IC50 [1],"IC50 ([2]; Trypanosoma brucei, STIB 795)",IC50 [2]
O=C(CN1CCN(c2ccc(Cl)cc2)CC1)c1ccc(O)c(O)c1,> 41.7 µM,3.04 µM,–
O=C(CC(SCc1ccco1)c1ccc(Cl)cc1)c1ccco1 (centres undefined),> 41.7 µM,–,5.16 µM and > 10.4 µM
CC1(C)CC(NC2=C(Cl)C(=O)c3ccccc3C2=O)CC(C)(C)N1,5.07 µM,1.79 µM,–
CN(C)CCCNc1nn2c(=O)c3ccccc3nc2c2ccccc12,> 4.17 µM,5.39 µM,–
CCCCc1ccc(NC(=S)NC2CC(C)(C)NC(C)(C)C2)cc1,> 20.8 µM,2.74 µM,–
CN(C)CCCC1c2ccccc2Sc2ccc(Cl)cc2C1O (centres undefined),> 20.8 µM,5.87 µM,–
O=C(CSc1cccc2cccnc12)c1ccc(Cl)cc1Cl,> 41.7 µM,1.4 µM,–
O=C(NCCc1nc(-c2ccccc2)cs1)C1(c2ccccc2)CC1,> 41.7 µM,5.81 µM,4.88 µM
COc1ccc(C(=O)O/N=C(\N)Cc2ccc(Cl)cc2)c(OC)c1,> 20.8 µM,0.104 µM,–
CCOC(=O)C1CCCN(Cc2cc(Cl)c3cccnc3c2O)C1 (centres undefined),> 4.17 µM,5.09 µM,–
CC1(C)CC(=O)C/C(=N\NC(=O)c2sc3ccccc3c2Cl)C1,> 41.7 µM,2.2 µM,–
COC(=O)c1ccccc1OCCCON1C(N)=NC(N)=NC1(C)C,> 0.42 µM,0.351 µM,–
C=CCn1c(-c2cccs2)nn(C2CC(=O)C3OCC2O3)c1=S (centres undefined),> 20.8 µM,4.75 µM,4.4 µM
CCN(CC)c1ccc(/C=N/NC(=O)c2nn(C)cc2Cl)c(O)c1,> 41.7 µM,1.44 µM,–
Clc1ccc(C(OCC2CCCCN2)c2ccc(Cl)cc2)cc1 (centres undefined),> 4.17 µM,2.78 µM,–
Cc1nc2sccn2c1C(=O)N/N=C/c1c(O)ccc2ccccc12,> 4.17 µM,1.53 µM,–
CCOc1ccc(C2=CC(C(C(C)=O)C(C)=O)c3ccccc3O2)cc1 (centres undefined),> 41.7 µM,4.42 µM,–
COc1cc2nc(NC3CCCc4ccccc43)nc(N)c2cc1OC (centres undefined),> 4.17 µM,4.75 µM,–
